# From patent publication US20250255845A1, “USE OF INTERLEUKIN (IL)-17A INHIBITOR IN PREPARATION OF MEDICAMENT FOR TREATING INFLAMMATORY DISEASE” (Xiangnan University, priority 2024, published 2025)
# Legend:
# [1] = tested on: PCNA; test: Immunohistochemistry of PCNA in dorsal skin of IMQ-induced psoriasis mice; format: in vivo, Balb/c mice; settings: preventive and therapeutic administration groups; dose-dependent
# Description: (§1) Balb/c mice (female, 6-8 weeks, 20+2 g), with certificate number [SCXK (Xiang) 2021-0002], were purchased from Hunan SJA Laboratory Animal (Changsha, China). All mice were housed in an specific pathogen free (SPF)-grade animal room with a 12 h light/12 h dark cycle, and experiments were started after the mice were acclimated for one week. Next, 96 mice were randomly divided into 12 groups (8 mice/group), including Control group, Control solvent (white vaseline) group, IMQ group, IMQ solvent (white vaseline) group, preventive administration of positive medicament Clo group (IMQ+Clo 55 mg), therapeutic administration of positive medicament group (IMQ+Clo (A) 55 mg), preventive administration of Tan low-dose group (IMQ+Tan 40 μg/cm^2), medium-dose group (IMQ+Tan160 μg/cm^2), and high-dose group (IMQ+Tan 640 μg/cm^2), and therapeutic administration of Tan low-dose group (IMQ+Tan (A) 40 μg/cm^2), medium-dose group (IMQ+Tan (A) 160 μg/cm^2), and high-dose group (IMQ+Tan (A) 640 μg/cm^2). After the mice were anesthetized, a 2 cm×3 cm area on the back was selected for hair removal. Modeling began 48 h after hair removal, and all modeling mice were applied with 65 mg (55 mg on the back and 5 mg on each ear) of IMQ cream every morning for 10 d. […]
# [2] = tested on: NO; test: Griess assay of LPS-induced NO production in RAW264.7 cells; format: cell-based, mouse
# Description: (§2) RAW264.7 cell culture: mouse mononuclear macrophages (RAW264.7, ATCC) are cultured in a complete medium containing 10% fetal bovine serum (FBS), 1% double antibodies (penicillin and streptomycin), and 89% DMEM at 37° C. and 5% CO2. In this experiment, RAW264.7 cells from passages 3 to 8 are used for related test.
# (§3) LPS (100 ng/ml) is added for stimulation, with or without Tan, and the cell supernatant is collected to detect the contents of NO, IL-23, IL-17A, TNF-α, and IL-6 in the cell supernatant. The cell lysate is collected and the protein expressions (STAT3, p-STAT3 (Ser727), and p-STAT3 (Tyr705)) are detected by Western blot. Total cell RNA is extracted and real-time fluorescence quantitative polymerase chain reaction (PCR) is conducted to detect the expression levels of IL-23, IL-17A, TNF-α, and IL-6 mRNA.
# RAW264.7 cells in the logarithmic growth phase were inoculated into a 48-well plate and the cell density was adjusted to 1.0×10^5 cells/well. After cultured for 24 h, the cells were stably adhered to the plate. The original medium was removed and different concentrations (5, 10, 20, 40 μM) of Tan were added to allow pretreatment for 1 h. […] OD540 nm value of the cell supernatant was detected according to the instructions of a Griess kit, and the NO content in the cell supernatant was calculated.
# [3] = tested on: IL-17A; test: Immunohistochemistry of IL-17A in dorsal skin of IMQ-induced psoriasis mice; format: in vivo, Balb/c mice; settings: preventive and therapeutic administration groups; dose-dependent
# Description: as §1
# [4] = tested on: IL-17A mRNA; test: Real-time fluorescence quantitative PCR, LPS-induced IL-17A mRNA in RAW264.7 cells; format: cell-based, mouse
# Description: as §2, §3
# RAW264.7 cells were inoculated into 6-well plate and the cell density was adjusted to 5.0×10^6 cells/well. After cultured for 24 h, the cells were stably adhered to the wall. The original medium was removed and different concentrations (5, 10, 20, 40 μM) of Tan were added to allow pretreatment for 1 h. LPS (100 ng/mL) was added and continued to be incubated for 24 h. The commercial TRlcom lysis buffer provided by Jianshi Biotech was added to extract total RNA from cells using the centrifugal column method and immediately reverse transcribed into c-DNA. The fluorescence intensity of each sample was detected according to the instructions of the real-time fluorescence quantitative PCR kit and specific primers (Table 1) (cycle conditions: enzyme activation 95° C. for 3 min, 1 cycle; denaturation 95° C. for 15 s, annealing/extension 60° C. for 1 min, 40 cycles). The mRNA expression level of each group was normalized with the GAPDH expression level, and the relative expression of mRNA was calculated using the 2^−ΔΔCt method.
smiles,measurement,setting,value
"COc1ccc(-c2cc(=O)c3c(OC)c(OC)c(OC)c(OC)c3o2)cc1 [Tan, tangeretin]",expression level of PCNA in the dorsal skin,[1],significantly reduced
same,inhibitory effect on NO compared with positive control Clo,"[2]; 40 μM, 24 h",comparable to that of the positive control
same,NO content in the cell supernatant,"[2]; 5-40 μM, 24 h, vs LPS group, P<0.001, dose-dependent",significantly reduced
same,inhibitory effect on the production of NO,[2]; 48 h,strong inhibitory effect
same,expression level of IL-17A in the dorsal skin,[3],significantly reduced
same,inhibitory effect on IL-17A (FIG. 5B),[4],strong inhibitory effect
same,inhibitory effect on IL-17A mRNA compared with positive control Clo,[4]; 40 μM,comparable to that of the positive control Clo
same,relative expression level of IL-17A mRNA,"[4]; 5-40 μM, 24 h, vs LPS, P<0.001, dose-dependent",significantly decreased
